Patent US10301265B2 (priority 2008, dated 2019)
Several values for one entry are separate records, joined by “and”; a condition that tells them apart may be missing. Equal entries are not always repeated. Where two headings read alike, the source gives them in different places. Marks after values point to notes of the source that are not given here.

Experiments:
[1] = test system: BoNT/A-induced neuromuscular block in mouse phrenic nerve hemidiaphragm
[2] = target: recombinant full-length BoNT/A light chain (rALC) (Clostridium botulinum, UniProt P0DPI0); assay: biochemical; conditions: read-out: % Inhibition Against rALC
[3] = target: recombinant full-length BoNT/B light chain (rBLC) (Clostridium botulinum, UniProt P10844); assay: biochemical; conditions: for inhibition at 20 µM: read-out: % Inhibition Against rBLC
[4] = test system: BoNT/A-mediated cleavage of intracellular SNAP-25 in N2a cells; type: cell-based, murine; conditions: 10 μM
[5] = test system: neuroblastoma N2a cells; conditions: for concentration well-tolerated by the cells / concentration toxic to N2a cells: mouse
[6] = target: BoNT/A (Clostridium botulinum, UniProt P0DPI0); assay: biochemical; conditions: for inhibition at 5 µM: read-out: % Inhibition against BoNT/A (5 μM)
Chain of BoNT/A (P0DPI0 1-448 limits assumed): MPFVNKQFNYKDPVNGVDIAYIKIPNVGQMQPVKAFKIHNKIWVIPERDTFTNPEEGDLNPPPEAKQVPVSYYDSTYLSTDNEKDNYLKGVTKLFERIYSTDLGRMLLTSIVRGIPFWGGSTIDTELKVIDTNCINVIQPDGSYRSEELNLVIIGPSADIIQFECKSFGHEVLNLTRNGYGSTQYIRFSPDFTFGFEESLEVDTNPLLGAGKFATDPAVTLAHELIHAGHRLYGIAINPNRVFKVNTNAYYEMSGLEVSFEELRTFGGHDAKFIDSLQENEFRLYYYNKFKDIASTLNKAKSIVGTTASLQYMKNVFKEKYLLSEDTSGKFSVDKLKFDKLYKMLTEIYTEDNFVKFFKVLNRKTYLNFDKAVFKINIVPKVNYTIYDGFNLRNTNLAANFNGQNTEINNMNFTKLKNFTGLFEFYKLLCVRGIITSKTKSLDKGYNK

Chain of recombinant full-length BoNT/A light chain (rALC) (P0DPI0 2-448 limits assumed): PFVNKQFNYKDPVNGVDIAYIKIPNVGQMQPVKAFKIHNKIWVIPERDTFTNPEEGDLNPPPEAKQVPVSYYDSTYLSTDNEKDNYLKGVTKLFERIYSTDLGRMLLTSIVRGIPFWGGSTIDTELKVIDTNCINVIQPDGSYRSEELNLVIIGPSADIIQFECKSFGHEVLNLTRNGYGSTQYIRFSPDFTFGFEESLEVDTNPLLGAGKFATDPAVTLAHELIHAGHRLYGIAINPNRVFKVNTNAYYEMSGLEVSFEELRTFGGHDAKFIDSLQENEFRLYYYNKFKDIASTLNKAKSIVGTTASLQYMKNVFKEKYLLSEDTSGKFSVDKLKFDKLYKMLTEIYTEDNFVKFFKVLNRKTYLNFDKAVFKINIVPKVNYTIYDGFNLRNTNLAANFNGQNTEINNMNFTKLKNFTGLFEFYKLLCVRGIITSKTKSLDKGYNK
Chain of recombinant full-length BoNT/B light chain (rBLC) (P10844 2-441 limits assumed): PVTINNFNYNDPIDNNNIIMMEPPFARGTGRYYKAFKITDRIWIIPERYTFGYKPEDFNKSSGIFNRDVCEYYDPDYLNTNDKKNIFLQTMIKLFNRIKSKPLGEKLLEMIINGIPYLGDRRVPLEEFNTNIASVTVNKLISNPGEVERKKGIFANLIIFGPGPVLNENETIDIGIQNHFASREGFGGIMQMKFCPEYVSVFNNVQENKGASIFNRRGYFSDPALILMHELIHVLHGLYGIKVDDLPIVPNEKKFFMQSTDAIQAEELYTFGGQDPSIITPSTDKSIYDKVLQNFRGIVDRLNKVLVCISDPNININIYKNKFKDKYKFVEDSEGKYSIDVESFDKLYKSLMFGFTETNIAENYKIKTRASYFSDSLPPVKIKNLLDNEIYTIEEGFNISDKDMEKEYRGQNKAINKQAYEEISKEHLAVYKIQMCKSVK

Row | Molecule | inhibition at 20 µM [2] [%] | inhibition at 20 µM [3] [%] | cell toxicity [5] | IC50 [6] [nM] | inhibition at 5 µM [6] [%] | other results
1 | CRATKML [Ac-CRATKML-NH2, reference compound] | – | – | – | – | – | Average Time to 50% Loss of Twitch Tension [1]: 52.70 ± 9.30^c min and 65.0 ± 11.5^c min
2 | Oc1c(C(Nc2cccnc2)c2ccc(C(F)(F)F)cc2)ccc2cccnc12 (racemic) [CB 7967495] | 92.7 ± 1.5 | 30.2 ± 2.4 | non-toxic to cells | – | – | inhibition of SNAP-25 cleavage [4]: near-to-complete inhibition; effective concentration of inhibitor required for maximum protection [1]: 5 µM; concentration well-tolerated by the cells [5]: up to 50 μM
3 | Oc1c(C(Nc2cccnc2)c2ccccc2F)ccc2cccnc12 (racemic) [CB 7968218] | 92.8 ± 0.8 | 16.8 ± 2.2 | non-toxic to cells | – | – | protection from SNAP-25 cleavage [4]: 68%; effective concentration of inhibitor required for maximum protection [1]: 10 µM; concentration toxic to N2a cells [5]: above 45 μM
4 | Oc1c(C(Nc2cccnc2)c2ccc(F)cc2)cc(Cl)c2cccnc12 (stereo not drawn) [Compound 5116-051A] | – | – | – | < 1000 | 91 | –
5 | Cc1ccc2ccc(C(Nc3cccnc3)c3ccccc3)c(O)c2n1 (stereo not drawn) [Compound 5116-047A] | – | – | – | – | 83 | IC50 ([6]; read-out: IC50): 1400 nM
6 | Nc1cc(C(Nc2ccccn2)c2ccccc2)c(O)c2ncccc12 (stereo not drawn) [Compound 4874-051A] | – | – | – | 2200 | 94 | –
7 | Cc1ccc2ccc(C(Nc3cccnc3)c3ccc(F)cc3)c(O)c2n1 (stereo not drawn) [Compound 5116-048A] | – | – | – | – | 87 | IC50 ([6]; read-out: IC50): 800 nM
8 | Oc1c(C(Nc2cccc3cccnc23)c2ccccc2)ccc2cccnc12 (racemic) [NSC 84096] | 91.9 ± 1.7 | 6.9 | non-toxic to cells | – | – | protection from SNAP-25 cleavage [4]: 66%; Average Time to 50% Loss of Twitch Tension [1]: 59.7 ± 4.9^d min; effective concentration of inhibitor required for maximum protection [1]: 20 µM; concentration well-tolerated by the cells [5]: up to 50 μM
9 | Oc1c(C(Nc2cccnc2)c2ccccc2F)cc(Cl)c2cccnc12 (stereo not drawn) [Compound 5116-052A] | – | – | – | < 1000 | 97.5 | –
10 | O=[N+]([O-])c1ccc(NC(c2ccccc2)c2ccc3cccnc3c2O)cc1 (stereo not drawn) [NSC 1010] | – | – | – | – | – | inhibition of BoNT serotype B light chain [3]: failed to inhibit; concentration toxic to N2a cells [5]: ≥ 10 µM
11 | Oc1c(C(Nc2cccnc2)c2ccc(F)cc2)ccc2cccnc12 (stereo not drawn) [Compound 5116-050A] | – | – | – | 1200 | 86.7 | –
12 | CCOc1ccc(C(Nc2cccnc2)c2cc(Cl)c3cccnc3c2O)cc1 (racemic) [CB 7969312] | 96.2 ± 1.2 | 31.2 ± 3 | non-toxic to cells | – | – | inhibition of SNAP-25 cleavage [4]: near-to-complete inhibition; concentration well-tolerated by the cells [5]: up to 50 μM
